# In ChEMBL document CHEMBL1201862, “PubChem BioAssay data set” (2004):
#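 48-hour exposure; five concentrations; linearly interpolated endpoints. GI50: concentration for 50% inhibition of growth.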 The source made the active and inactive calls. Cut-off read from the data, not from the text of the source: active = GI50 up to about 1.1 µM and inactive = higher.
# Columns and labels:
# Experiment in all cases: inhibition of tumour cell growth, NCI panel, 48 h
# XF498 = tested on: XF498
# HOP-18 = tested on: HOP-18
# KM-20L2 = tested on: KM-20L2
# RXF 631 = tested on: RXF 631
# DMS-273 = tested on: DMS-273
# M19-MEL = tested on: M19-MEL
# SNB-78 = tested on: SNB-78
# LXFL 529 = tested on: LXFL 529
# DLD-1 = tested on: DLD-1
SMILES,GI50 (XF498),GI50 (HOP-18),GI50 (KM-20L2),GI50 (RXF 631),GI50 (DMS-273),GI50 (M19-MEL),GI50 (SNB-78),GI50 (LXFL 529),GI50 (DLD-1)
O=[N+]([O-])c1ccc(/C=N/C23CC4CC(CC(C4)C2)C3)cc1,> 100 µM (inactive),> 100 µM (inactive),> 100 µM (inactive),> 100 µM (inactive),> 100 µM (inactive),> 100 µM (inactive),> 100 µM (inactive),> 100 µM (inactive),> 100 µM (inactive)
CN(C)/C=C/C(=O)c1cccc(C(=O)/C=C/N(C)C)n1,> 100 µM (inactive),> 100 µM (inactive),> 100 µM (inactive),–,> 100 µM (inactive),> 100 µM (inactive),> 100 µM (inactive),> 100 µM (inactive),> 100 µM (inactive)
CC(C)=CC(=O)OC1C2C(C)=CC(=O)C(O)C2(C)C2C3(O)OCC24C(CC(=O)OC14)C(C)C3O (centres undefined),0.0246 µM (active),–,0.0316 µM (active),–,0.00348 µM (active),–,0.0311 µM (active),–,0.0211 µM (active)
CC1=NN(C(=O)Cc2ccccc2)C(=O)/C1=C\c1ccc([N+](=O)[O-])cc1,> 100 µM (inactive),–,> 100 µM (inactive),–,–,> 100 µM (inactive),> 100 µM (inactive),> 100 µM (inactive),> 100 µM (inactive)
N#CCN1C(=O)c2cc([N+](=O)[O-])cc3cc([N+](=O)[O-])cc(c23)C1=O,12.2 µM (inactive),64.3 µM (inactive),12.9 µM (inactive),20 µM (inactive),23.9 µM (inactive),14.3 µM (inactive),16.7 µM (inactive),9.23 µM (inactive),7.05 µM (inactive)
O=c1c2ccccc2nc(-c2cccc(Cl)c2)n1NCC1(O)OCC(O)C(O)C1O (centres undefined),–,–,> 100 µM (inactive),66.5 µM (inactive),> 100 µM (inactive),> 100 µM (inactive),> 100 µM (inactive),93.1 µM (inactive),–
CCOC(=O)CC(C)C1(C(=O)OCC)CCCCC1=O (centres undefined),> 100 µM (inactive),> 100 µM (inactive),98.9 µM (inactive),> 100 µM (inactive),15 µM (inactive),> 100 µM (inactive),> 100 µM (inactive),> 100 µM (inactive),35 µM (inactive)
NC1=C(O)c2cccc3cccc(c23)C1=O,–,> 100 µM (inactive),> 100 µM (inactive),> 100 µM (inactive),> 100 µM (inactive),> 100 µM (inactive),> 100 µM (inactive),> 100 µM (inactive),> 100 µM (inactive)
COC(=O)N/N=C(/CCC(=O)Nc1ccc(C)c(C)c1)CC(=O)C(C)(C)C,> 100 µM (inactive),> 100 µM (inactive),> 100 µM (inactive),–,> 100 µM (inactive),> 100 µM (inactive),–,> 100 µM (inactive),> 100 µM (inactive)
CCOC(=O)c1[nH]c(COC(C)=O)c(CCCOC(C)=O)c1CCCOC(C)=O,> 100 µM (inactive),–,> 100 µM (inactive),–,> 100 µM (inactive),–,> 100 µM (inactive),> 100 µM (inactive),–
Cc1cc2c(cc1C)[n+]([O-])c(C(=O)C/C(=N/NC(=S)NN)C(=O)Nc1cccc(C(F)(F)F)c1)c[n+]2[O-],–,> 100 µM (inactive),–,> 100 µM (inactive),> 100 µM (inactive),> 100 µM (inactive),> 100 µM (inactive),> 100 µM (inactive),> 100 µM (inactive)
O=C1C2C=CC(n3[nH]c(=O)n(Cc4ccccc4)c3=O)CC2C(=O)N1c1cccc(Cl)c1 (centres undefined),65.9 µM (inactive),> 100 µM (inactive),> 100 µM (inactive),–,> 100 µM (inactive),> 100 µM (inactive),> 100 µM (inactive),> 100 µM (inactive),> 100 µM (inactive)
OCc1cc2c(cn1)[nH]c1ccc(NCc3ccccc3)cc12,25.8 µM (inactive),–,14.4 µM (inactive),27.4 µM (inactive),20.7 µM (inactive),22.2 µM (inactive),–,17.9 µM (inactive),34.8 µM (inactive)
COc1ccc(Cc2c3cc(O)c([O-])cc3cc[n+]2C)cc1,18.4 µM (inactive),36.1 µM (inactive),51.1 µM (inactive),6.49 µM (inactive),16.5 µM (inactive),20.7 µM (inactive),> 100 µM (inactive),–,10.6 µM (inactive)
O=C1OC(c2ccccc2)=N/C1=C/NC(Cc1ccccc1)C(=O)O (centres undefined),–,–,> 100 µM (inactive),> 100 µM (inactive),> 100 µM (inactive),> 100 µM (inactive),> 100 µM (inactive),> 100 µM (inactive),> 100 µM (inactive)
N#Cc1cc([N+](=O)[O-])ccc1NC(=O)/C(=N\NC(=O)c1ccncc1)C(c1cnc2ccc([N+](=O)[O-])cc2n1)[N+](=O)[O-] (centres undefined),1.69 µM (inactive),1.5 µM (inactive),4.26 µM (inactive),2.32 µM (inactive),1.82 µM (inactive),0.566 µM (active),6.34 µM (inactive),1.57 µM (inactive),–
Clc1ccccc1C1N2CCCCC2[C@@H]2c3[nH]c4ccccc4c3CCN12 (some centres undefined),19.4 µM (inactive),42 µM (inactive),18.6 µM (inactive),–,27.4 µM (inactive),14.7 µM (inactive),25.4 µM (inactive),31 µM (inactive),18.9 µM (inactive)
Nc1nc2c(ncn2CC(CO)CC(c2ccccc2)P(=O)(O)O)c(=O)[nH]1 (centres undefined),> 100 µM (inactive),> 100 µM (inactive),> 100 µM (inactive),–,> 100 µM (inactive),> 100 µM (inactive),> 100 µM (inactive),> 100 µM (inactive),> 100 µM (inactive)
CC1=CC(=O)CC2(C)CC[C@@H]3C[C@]12OC3(C)C (some centres undefined),> 100 µM (inactive),> 100 µM (inactive),> 100 µM (inactive),–,> 100 µM (inactive),> 100 µM (inactive),> 100 µM (inactive),> 100 µM (inactive),> 100 µM (inactive)
O=c1cc(-c2ccccc2F)[nH]c2cc3c(cc12)OCO3,1.5 µM (inactive),0.544 µM (active),–,–,0.189 µM (active),0.236 µM (active),0.23 µM (active),0.0403 µM (active),0.0441 µM (active)
N=C1NC(=O)N2CC12 (centres undefined) [IMEXON],> 100 µM (inactive),> 100 µM (inactive),> 100 µM (inactive),–,> 100 µM (inactive),–,–,> 100 µM (inactive),> 100 µM (inactive)
